Measurements published in BindingDB's records for patent US20240076297 (Merck Sharp & Dohme, 2024).
pIC50: −log10 of the molar value.

What was measured:
[1] = molecular target: Adenosine receptor A2a (Homo sapiens, UniProt P29274); assay: Measurement of A2A or A2B Binding Affinity Using Radioligand Binding
Protocol: (§1) Method (A): 148 μL (5 μg/mL) membranes (Perkin Elmer, Cat. No. RBHA2aM400UA) and 2 μL compounds of the invention to be tested (test compound) were transferred to individual wells of a 96-well polypropylene assay plate and incubated for 15 to 30 min at room temperature. [3H] SCH58261 ((7-(2-phenylethyl)-5-amino-2-(2-furyl)-pyrazolo-[4,3-e]-1,2,4-triazolo[1,5-c]pyrimidine)) was diluted in assay buffer (50 mM Tris pH 7.4, 10 mM MgCl2, 0.005% Tween20) to a concentration of 4 nM and 50 μL transferred to each well of the assay plate. To define total and non-specific binding, wells containing 1% DMSO and 1 μM ZM241385 (Tocris Bioscience, Cat. No. 1036) respectively, were also included. The assay plate was incubated at room temperature for 60 min with agitation. […] The plate was incubated for at least 20 min, and then the amount of radioactivity remaining in each well was determined using a TopCount (Perkin Elmer) scintillation counter. After normalization to total and non-specific binding, the percent effect at each compound concentration was calculated. The plot of percent effect versus the log of compound concentration was analyzed electronically using a 4-parameter logistic fit based on the Levenberg-Marquardt algorithm to generate IC50 values.

[2] = molecular target: T1, Adenosine receptor A2b (Homo sapiens, UniProt P29275); assay: as above
T1 sequence (P29275 whole entry): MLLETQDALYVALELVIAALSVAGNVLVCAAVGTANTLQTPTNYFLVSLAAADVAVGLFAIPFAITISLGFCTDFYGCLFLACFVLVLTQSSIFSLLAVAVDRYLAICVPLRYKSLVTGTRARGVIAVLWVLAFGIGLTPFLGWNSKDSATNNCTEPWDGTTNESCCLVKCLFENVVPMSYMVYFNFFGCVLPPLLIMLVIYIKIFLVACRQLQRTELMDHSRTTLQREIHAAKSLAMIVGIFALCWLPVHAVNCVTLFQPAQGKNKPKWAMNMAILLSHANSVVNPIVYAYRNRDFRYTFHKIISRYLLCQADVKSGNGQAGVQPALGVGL
Protocol: as §1

Adenosine receptor A2a, sequence (P29274 whole entry): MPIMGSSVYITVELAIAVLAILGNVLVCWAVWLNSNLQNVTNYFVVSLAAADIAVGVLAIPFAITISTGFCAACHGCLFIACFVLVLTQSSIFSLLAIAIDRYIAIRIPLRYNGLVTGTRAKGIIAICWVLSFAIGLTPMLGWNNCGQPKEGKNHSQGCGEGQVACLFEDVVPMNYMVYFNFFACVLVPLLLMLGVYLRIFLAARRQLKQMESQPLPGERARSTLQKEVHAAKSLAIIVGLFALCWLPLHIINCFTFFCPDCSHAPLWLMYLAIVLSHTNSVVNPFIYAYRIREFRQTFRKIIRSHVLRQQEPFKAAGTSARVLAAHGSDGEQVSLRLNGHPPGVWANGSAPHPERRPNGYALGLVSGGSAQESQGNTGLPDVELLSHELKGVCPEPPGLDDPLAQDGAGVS

pIC50 [1]: 7.96 | pIC50 [2]: 7.09
SMILES: COc1cccc2c1nc(N)n1nc(CCS(=O)(=O)C(F)(F)F)nc21 [US20240076297, Example 13.5]
